Measurements: US6919298B2, “Enhanced herbicide composition” (Valent Biosciences Corporation, priority 2002, dated 2005)
Several values for one entry are separate records, joined by “and”; a condition that tells them apart may be missing. Equal entries are not always repeated.

Experiments:
[1] = system: tobacco; experiment: Spray (tank mix) phytotoxicity/herbicidal effect on greenhouse tobacco; format: in vivo, Nicotiana tabacum (tobacco); settings: for Phytotoxicity at 4d post-spraying: Percent Leaf Area Affected / Phytotoxicity at 6d post-spraying: Percent Leaf Area Affected: paraquat 187 mg/l and/or Ethephon 1000 ul/l
Protocol: (§1) In all experiments, deionized ultra-pure water was used in preparing solutions. Spray solutions were used as soon as possible after mixing.
(§2) COC was added to all spray solutions at a rate of 0.25% (v/v). For all treatments containing both an herbicide and an SAR inducer, these materials were mixed and applied in a single spray solution (commonly known as a tank mix). After spraying, plants were moved to the greenhouse and arranged in a randomized complete block experimental design. Plants were evaluated for phytotoxicity/herbicidal effects after spraying by assessing damage according to percent leaf area affected.
(§3) All the data were subject to an analysis of variance, and the mean separations were determined with Duncan's new multiple range test at α=0.05. The present invention may be illustrated by the following representative examples: […]

[2] = system: giant foxtail; experiment: Spray (tank mix) phytotoxicity/herbicidal effect on giant foxtail; format: in vivo; settings: monocotyledonous plant species (giant foxtail, Table 2)
Protocol: as §1, §2, §3

[3] = system: tobacco; design: species or system Nicotiana tabacum (tobacco); settings: in vivo
Protocol: as §2, §3

[4] = system: tobacco; design: species or system Nicotiana tabacum (tobacco); settings: in vivo; remark: listed apart in the source
Protocol: as §2
All the data were subject to an analysis of variance, and the mean separations were determined with Duncan's new multiple range test at α=0.05. The present invention may be illustrated by the following representative examples:
In this experiment, the plants were treated and kept in the dark for 48 hours from the first spray treatment to delay the light-dependent effects of paraquat.

[5] = system: lambsquarter (Chenopodium album); experiment: Spray (tank mix) phytotoxicity/herbicidal effect on lambsquarter; format: in vivo
Protocol: as §1, §2, §3

[6] = tobacco, added to the paraquat spray solution
[7] = tobacco, Actigard 187 mg/l, with or without paraquat 150 mg/l, COC 0.25%
[8] = tobacco, Actigard 935 mg/l, with or without paraquat 150 mg/l, COC 0.25%
[9] = lambsquarter, Actigard 187 mg/l, with or without paraquat 150 mg/l, COC 0.25%
[10] = lambsquarter, Actigard 935 mg/l, with or without paraquat 150 mg/l, COC 0.25%

O=C([O-])c1ccccc1O.[Na+] [NaSA, sodium salicylate]
Safening from paraquat herbicide damage (in words) ([1]; in vivo): safened the plants from paraquat herbicide damage | Safening against diquat (in words) ([1]; tobacco, Table 3): able to safen tobacco against the herbicide diquat | Safening from paraquat damage (in words) [2]: safen plants from paraquat damage | Protection from paraquat damage (in words) [3]: significant protection from paraquat damage | Safening from paraquat (in words) [4]: resulted in safening | Protection from paraquat damage (in words) ([5]; in vivo): limited or no protection from paraquat damage

C[n+]1ccc(-c2cc[n+](C)cc2)cc1 [Paraquat, 1,1′-dimethyl-4,4′-bipyridinium ion]
Phytotoxicity at 1d ([1]; in vivo): 4.1 E | Phytotoxicity at 1d: Percent Leaf Area Affected ([1]; in vivo): 75 E Percent | Phytotoxicity at 2d: Percent Leaf Area Affected ([1]; in vivo): 61.25 E Percent and 65 E Percent | Phytotoxicity at 4d: Percent Leaf Area Affected ([1]; in vivo): 62.5 F Percent | Phytotoxicity at 5d: Percent Leaf Area Affected ([1]; in vivo): 83.75 E Percent | Phytotoxicity at 7d: Percent Leaf Area Affected ([1]; in vivo): 50 D Percent and 96.5 D Percent | Phytotoxicity at 8d ([1]; in vivo): 5.0 C | Phytotoxicity at 10d: Percent Leaf Area Affected ([1]; in vivo): 99 F Percent | Phytotoxicity at 11d ([1]; in vivo): 5.0 E | Phytotoxicity at 12d ([1]; in vivo): 4.2 C | Phytotoxicity at 4d post-spraying: Percent Leaf Area Affected ([1]; tobacco, COC 0.25%): 95 C Percent | Phytotoxicity at 6d post-spraying: Percent Leaf Area Affected ([1]; tobacco, COC 0.25%): 97.5 C Percent | Phytotoxicity at 1d post-spraying [3]: 3.7 D | Phytotoxicity at 4d post-spraying [3]: 3.8 D | Phytotoxicity at 6d post-spraying [3]: 3.4 E | Phytotoxicity after 3 days in the light (5 days after initial spray) [4]: 5.0 D | Phytotoxicity after 12 days in the light (14 days after initial spray) [4]: 5.0 D | Phytotoxicity at 2d ([5]; in vivo): 3.9 C | Phytotoxicity at 2d: Percent Leaf Area Affected ([5]; in vivo): 72.5 C Percent | Phytotoxicity at 4d ([5]; in vivo): 3.9 BC | Phytotoxicity at 4d: Percent Leaf Area Affected ([5]; in vivo): 72.5 BC Percent | Phytotoxicity at 7d ([5]; in vivo): 3.9 BC | Phytotoxicity at 7d: Percent Leaf Area Affected ([5]; in vivo): 72.5 BC Percent

O=P(O)(O)CCCl [Ethephon, (2-choroethyl) phosphonic acid]
Safening from paraquat with pre-treatment with 1-MCP (in words) ([1]; tobacco, 1-MCP, an inhibitor of ethylene perception): observed regardless of pre-treatment with 1-MCP | Safening from paraquat herbicide damage (in words) [1, 6]: safened the plants from paraquat herbicide damage | Phytotoxicity at 4d post-spraying: Percent Leaf Area Affected ([1]; tobacco, COC 0.25%): 0 A Percent | Phytotoxicity at 6d post-spraying: Percent Leaf Area Affected ([1]; tobacco, COC 0.25%): 0 A Percent

c1cc[n+]2c(c1)-c1cccc[n+]1CC2 [Diquat, 1,1′-ethylene-2,2′-bipyridyidiylium ion]
Phytotoxicity at 1d ([1]; in vivo): 3.3. D | Phytotoxicity at 4d ([1]; in vivo): 4.3 C | Phytotoxicity at 6d ([1]; in vivo): 4.3 C | Phytotoxicity at 12d ([1]; in vivo): 3.9 C

O=C(O)c1cc(F)ccc1O [5-FSA, 5-fluorosalicylate]
Phytotoxicity at 6d ([1]; in vivo): 2.3 B | Phytotoxicity at 8d ([1]; in vivo): 2.8 B | Phytotoxicity at 11d ([1]; in vivo): 2.0 B | Safening from paraquat herbicide damage (in words) [1, 6]: able to safen tobacco from paraquat

CSC(=O)c1cccc2nnsc12 [Actigard, Benzo(1,2,3)thiadiazole-7-carbothioic acid-S-methyl ester]
Phytotoxicity at 2d: Percent Leaf Area Affected [1, 7]: 0 A Percent | Phytotoxicity at 4d: Percent Leaf Area Affected [1, 7]: 0 A Percent | Phytotoxicity at 7d: Percent Leaf Area Affected [1, 7]: 0 A Percent | Phytotoxicity at 2d: Percent Leaf Area Affected [1, 8]: 1 A Percent | Phytotoxicity at 4d: Percent Leaf Area Affected [1, 8]: 0 A Percent | Phytotoxicity at 7d: Percent Leaf Area Affected [1, 8]: 0 A Percent | Safening from paraquat herbicide damage (in words) [1, 6]: safened the plants from paraquat herbicide damage | Phytotoxicity at 2d: Percent Leaf Area Affected [5, 9]: 0 A Percent | Phytotoxicity at 4d: Percent Leaf Area Affected [5, 9]: 0 A Percent | Phytotoxicity at 7d: Percent Leaf Area Affected [5, 9]: 0 A Percent | Phytotoxicity at 2d: Percent Leaf Area Affected [5, 10]: 0 A Percent | Phytotoxicity at 4d: Percent Leaf Area Affected [5, 10]: 0 A Percent | Phytotoxicity at 7d: Percent Leaf Area Affected [5, 10]: 0 A Percent | Protection from paraquat damage (in words) ([5]; lambsquarter, tank mixed or applied with paraquat): did show safening
